Experimental data reported in patent US8772226B2, “Methods and compositions for the detection of cancer” (The Johns Hopkins University, priority 2009, dated 2014).
Starred links: 1 amine or outer side, 2 acyl side, 3 side chain; linkers in the order of their positions; H or OH if unused. Non-standard residues stand in square brackets, D forms with d. Residues, ends and D or L forms follow the SMILES beside them. No end group written: not given here. *: point of attachment. X1 = C/C=C(/C)C(=O)O[C@H]1C(C)=C2[C@H]([C@@H]1OC(=O)CCCCCCC)[C@@](C)(OC(C)=O)C[C@H](OC(=O)Cc1ccc(O)c(CCCCCN*)c1)[C@@]1(O)[C@H]2OC(=O)[C@@]1(C)O; γGlu = O=C(O)[C@H](CCC(=O)[*:2])N[*:1]; Morpholide = C1CN(*)CCO1; PhADT = not defined here; CO = O=C([*:1])[*:2]

Columns and labels:
CWR22H tumor = assay: Biodistribution in CWR22H tumor bearing mice; assay type: in vivo; conditions: % Injected Dose/gram tissue, five days after single intravenous dose of 2 μmole (120 mg/kg) of prodrug
Experimental: FIGS. 4A and 4B are (A) selective accumulation of 12ADT-Asp and 12ADT-Asp-Glu in tumor tissue compared to indicated normal tissue five days after single intravenous dose of 2 μmole (120 mg/kg) (FIG. 4A discloses “Asp-Glu*Glu*Glu*Glu” as SEQ ID NO: 57); and (B) biodistribution of TG species (sum of 12ADT-Asp, 12ADT-Asp-Glu and 12ADT-Asp-Glu*Glu*Glu*Glu (SEQ ID NO: 57)) in CWR22H tumor bearing mice. Data presented as % Initial dose (ID)/gram and tumor/tissue ratios (n=4 mice).
In the course of developing a PSMA-activated TG therapy, a prodrug that was readily hydrolyzed by PSMA and selectively toxic to PSMA-producing human prostate cancers in vitro and in vivo was identified. Tissue levels of the TG analog (12ADT-Asp) that is released from the peptide carrier by PSMA were analyzed. See, for example, FIG. 4A.
The characterization of 12ADT-Asp is described in detail below. This TG analog is even more lipophilic than TG due to substitution of the butanoyl side chain of TG with a 12 carbon aminododecanoyl side chain. While it might have been expected to see accumulation of this highly lipophilic 12ADT-Asp in tumor tissue due to PSMA activation, the magnitude of accumulation of the free drug compared to plasma was unexpected. […]

[1] = Peptide stability in serum; assay type: in vitro ADME
From the text: (§1) Some preferred peptides include a PSMA-hydrolyzable, a-linked dipeptide “cap” that are not substrates for GGH, and are more specific PSMA substrates. Combination a- and side chain-linked PSMA substrates can be highly efficient and specific. […] A number of aspartate- and glutamate-containing linkers are depicted in FIG. 1. These particular linkers can be bonded to amine groups on therapeutic drugs.

SERCA = SERCA inhibition compared to TG (preliminary / earlier data); assay type: biochemical
SERCA pump = target: T1, SERCA pump (Oryctolagus cuniculus, UniProt P04191); assay: Microsomal assay of SERCA pump inhibition compared to TG; assay type: biochemical
T1 construct: from tissue; host or cells: microsomes
Experimental: FIG. 6. Microsomal assay comparing inhibition of SERCA pump by compound 14 and TG over a range of concentrations.
All materials were purified by column chromatography with structure confirmed by NMR analysis and mass spectroscopy. The purified phenolic TG analog 14 was then tested in a previously described microsomal assay system to assess inhibition of the SERCA pump compared to TG, FIG. 6.

[2] = target: sarcoplasmic reticulum (SR) and endoplasmic reticulum (ER) Ca2+-ATPase (SERCA) pump; conditions: SERCA pump of skeletal, cardiac, muscle and brain microsomes; read-out: apparent dissociation constant; cited from earlier work
LNCaP cells [3] = tested on: LNCaP cells
LNCaP cells [4] = assay: Cleavage assay with LNCaP cells, metabolites by LC/MS; assay type: cell-based, human; conditions: 3 days culture with drug
[5] = Peptide stability to hydrolysis in mouse plasma; assay type: in vitro ADME
From the text: as §1

[6] = Peptide stability to hydrolysis in human plasma; assay type: in vitro ADME
From the text: as §1

T1 sequence (P04191 1-994 isoform P04191-2): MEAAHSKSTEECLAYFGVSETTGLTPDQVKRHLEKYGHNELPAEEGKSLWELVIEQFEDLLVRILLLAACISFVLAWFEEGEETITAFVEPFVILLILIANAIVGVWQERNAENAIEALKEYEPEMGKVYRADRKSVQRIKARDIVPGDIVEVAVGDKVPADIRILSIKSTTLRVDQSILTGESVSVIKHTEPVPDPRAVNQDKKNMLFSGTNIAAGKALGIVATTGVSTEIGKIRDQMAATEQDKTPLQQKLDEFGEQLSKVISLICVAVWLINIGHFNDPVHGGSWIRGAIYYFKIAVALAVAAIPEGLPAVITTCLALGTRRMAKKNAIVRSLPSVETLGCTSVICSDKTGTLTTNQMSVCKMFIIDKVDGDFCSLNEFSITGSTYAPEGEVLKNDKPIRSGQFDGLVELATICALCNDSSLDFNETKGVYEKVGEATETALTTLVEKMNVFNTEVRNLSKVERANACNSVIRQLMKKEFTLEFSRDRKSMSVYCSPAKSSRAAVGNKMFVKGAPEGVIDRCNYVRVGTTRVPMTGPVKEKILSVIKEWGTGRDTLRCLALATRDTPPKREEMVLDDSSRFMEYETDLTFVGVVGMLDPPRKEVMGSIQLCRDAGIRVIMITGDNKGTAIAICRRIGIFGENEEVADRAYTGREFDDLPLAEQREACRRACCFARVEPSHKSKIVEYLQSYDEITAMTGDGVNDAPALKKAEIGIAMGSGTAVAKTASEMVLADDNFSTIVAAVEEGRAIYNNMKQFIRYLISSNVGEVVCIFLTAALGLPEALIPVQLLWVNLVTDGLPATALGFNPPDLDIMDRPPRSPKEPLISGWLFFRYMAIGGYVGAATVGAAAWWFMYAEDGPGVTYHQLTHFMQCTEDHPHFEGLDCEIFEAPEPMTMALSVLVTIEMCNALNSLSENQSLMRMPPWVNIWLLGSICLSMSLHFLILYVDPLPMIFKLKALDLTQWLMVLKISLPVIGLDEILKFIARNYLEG

## C/C=C(/C)C(=O)O[C@H]1C(C)=C2[C@H]([C@@H]1OC(=O)CCCCCCC)[C@@](C)(OC(C)=O)C[C@H](OC(=O)CCCCCCCCCCCNC(=O)C[C@H](N)C(=O)O)[C@@]1(O)[C@H]2OC(=O)[C@@]1(C)O [12ADT-Asp]
CWR22H tumor
  Tumor/Kidney ratio: 15.4
  Tumor/Skeletal muscle ratio: 20.5

## N[C@@H](CCC(=O)N[C@@H](CCC(=O)N[C@@H](CCC(=O)N[C@@H](CC(=O)O)C(=O)N[C@@H](CCC(=O)O)C(=O)O)C(=O)O)C(=O)O)C(=O)O [Glu*Glu*Glu*Asp-Glu] ({γGlu-γGlu-γGlu}-Asp-Glu-OH; N-terminus and C-terminus assumed)
[1]
  stability in serum: high stability in serum

## C/C=C(/C)C(=O)O[C@H]1C(C)=C2[C@H]([C@@H]1OC(=O)CCCCCCC)[C@@](C)(OC(C)=O)C[C@H](OC(=O)CCCCCCCCCCCN)[C@@]1(O)[C@H]2OC(=O)[C@@]1(C)O [12ADT]
SERCA
  SERCA inhibition compared to TG: as efficiently as does TG

## C/C=C(/C)C(=O)OC1C(C)=C2[C@H]([C@@H]1OC(=O)CCCCCCC)[C@@](C)(OC(C)=O)CC(OC(=O)CCc1cc(I)c(O)c(CCCCCNC(=O)OC(C)(C)C)c1)[C@@]1(O)[C@H]2OC(=O)[C@@]1(C)O (stereo partly shown) [compound 14]
SERCA pump
  ability to inhibit the SERCA pump: maintained potent ability to inhibit the SERCA pump at nanomolar concentrations
SERCA pump; range of concentrations, compared to TG
  potency of SERCA pump inhibition relative to TG (fold less potent): approximately 4 fold

## C/C=C(/C)C(=O)O[C@H]1C(C)=C2[C@H]([C@@H]1OC(=O)CCCCCCC)[C@@](C)(OC(C)=O)C[C@H](OC(=O)CCC)[C@@]1(O)[C@H]2OC(=O)[C@@]1(C)O [Thapsigargin]
[2]
  Kd: ≤ 0.0022 nM

## C/C=C(/C)C(=O)O[C@H]1C(C)=C2[C@H]([C@@H]1OC(=O)CCCCCCC)[C@@](C)(OC(C)=O)C[C@H](OC(=O)Cc1ccc(O)c(CCCCCNC(=O)[C@H](CC(C)C)NC(=O)[C@H](CCC(N)=O)NC(=O)[C@H](CC(C)C)NC(=O)[C@H](CCCCN)NC(=O)[C@H](CO)NC(=O)[C@H](CO)NC(=O)[C@H](Cc3c[nH]cn3)NC(=O)N3CCOCC3)c1)[C@@]1(O)[C@H]2OC(=O)[C@@]1(C)O [JHD9784, His-Ser-Ser-Lys-Leu-Gln-Leu-(PhADT)] ({Morpholide-CO}-HSSKLQL-X1)
LNCaP cells [3]
  IC50: 2.5 nM
LNCaP cells [4]
  cleavage of pro-drug by LNCaP cells: can cleave

## NC(=O)CC[C@H](NC(=O)[C@H](CC(=O)O)NC(=O)CC[C@H](NC(=O)CC[C@H](NC(=O)CC[C@H](N)C(=O)O)C(=O)O)C(=O)O)C(=O)O [Glu*Glu*Glu*Asp-Gln] ({γGlu-γGlu-γGlu}-Asp-Gln-OH; N-terminus and C-terminus assumed)
[1]
  stability in serum: high stability in serum

## N[C@@H](CC(=O)O)C(=O)N[C@@H](CCC(=O)N[C@@H](CCC(=O)N[C@@H](CC(=O)O)C(=O)N[C@@H](CCC(=O)O)C(=O)O)C(=O)O)C(=O)O [Asp-Glu*Glu*Asp-Glu] (H-D[γGlu][γGlu]DE-OH; N-terminus and C-terminus assumed)
[5]
  stability to hydrolysis in plasma: completely stable to hydrolysis
[6]
  stability to hydrolysis in plasma: completely stable to hydrolysis

## (PhADT)-Glu-yGlu-yGlu-yGlu (PhADT-E[γGlu][γGlu][γGlu]; reading uncertain) [JHD9783]
LNCaP cells [4]
  cleavage of pro-drug by LNCaP cells: can cleave
